From ChEMBL document CHEMBL3217532, “New analyses of MIC90 data to aid antibacterial drug discovery” (2011)
Converted amounts (≈) assume the structure as drawn.

Legend:
Assay type in all cases: functional
Pseudomonas aeruginosa [1] = assay: Antimicrobial activity against Pseudomonas aeruginosa 1761-00
Pseudomonas aeruginosa [2] = assay: Antimicrobial activity against Pseudomonas aeruginosa PA-4991
Pseudomonas aeruginosa [3] = assay: Antimicrobial activity against Pseudomonas aeruginosa 1953-00
Pseudomonas aeruginosa [4] = assay: Antimicrobial activity against Pseudomonas aeruginosa 1563-00
Pseudomonas aeruginosa [5] = assay: Antimicrobial activity against Pseudomonas aeruginosa 1514-08
Pseudomonas aeruginosa [6] = assay: Antimicrobial activity against Pseudomonas aeruginosa 1512-08
Pseudomonas aeruginosa [7] = assay: Antimicrobial activity against Pseudomonas aeruginosa 1567-05
Pseudomonas aeruginosa [8] = assay: Antimicrobial activity against Pseudomonas aeruginosa 1956-00
Pseudomonas aeruginosa [9] = assay: Antimicrobial activity against Pseudomonas aeruginosa PA-4999
Pseudomonas aeruginosa [10] = assay: Antimicrobial activity against Pseudomonas aeruginosa PA-4997
Pseudomonas aeruginosa [11] = assay: Antimicrobial activity against Pseudomonas aeruginosa 1564-05
Pseudomonas aeruginosa [12] = assay: Antimicrobial activity against Pseudomonas aeruginosa PA-4624
Pseudomonas aeruginosa [13] = assay: Antimicrobial activity against Pseudomonas aeruginosa 1957-00
Pseudomonas aeruginosa [14] = assay: Antimicrobial activity against Pseudomonas aeruginosa 1570-05
Pseudomonas aeruginosa [15] = assay: Antimicrobial activity against Pseudomonas aeruginosa 1954-00
Pseudomonas aeruginosa [16] = assay: Antimicrobial activity against Pseudomonas aeruginosa 1523-08
Pseudomonas aeruginosa [17] = assay: Antimicrobial activity against Pseudomonas aeruginosa 1562-05
Pseudomonas aeruginosa [18] = assay: Antimicrobial activity against Pseudomonas aeruginosa PA-4990
Pseudomonas aeruginosa [19] = assay: Antimicrobial activity against Pseudomonas aeruginosa 1760-00
Pseudomonas aeruginosa [20] = assay: Antimicrobial activity against Pseudomonas aeruginosa 1753-00
Pseudomonas aeruginosa [21] = assay: Antimicrobial activity against Pseudomonas aeruginosa 1611-09
Pseudomonas aeruginosa [22] = assay: Antimicrobial activity against Pseudomonas aeruginosa PA-1757
Pseudomonas aeruginosa [23] = assay: Antimicrobial activity against Pseudomonas aeruginosa 1569-05
Pseudomonas aeruginosa [24] = assay: Antimicrobial activity against Pseudomonas aeruginosa 1515-08
Pseudomonas aeruginosa [25] = assay: Antimicrobial activity against Pseudomonas aeruginosa 1619-08
Pseudomonas aeruginosa [26] = assay: Antimicrobial activity against Pseudomonas aeruginosa 1568-05
Pseudomonas aeruginosa [27] = assay: Antimicrobial activity against Pseudomonas aeruginosa 1767-00
Pseudomonas aeruginosa [28] = assay: Antimicrobial activity against Pseudomonas aeruginosa 1613-09
Pseudomonas aeruginosa [29] = assay: Antimicrobial activity against Pseudomonas aeruginosa 1527-08
Pseudomonas aeruginosa [30] = assay: Antimicrobial activity against Pseudomonas aeruginosa PA-4995
Pseudomonas aeruginosa [31] = assay: Antimicrobial activity against Pseudomonas aeruginosa 1565-05
Pseudomonas aeruginosa [32] = assay: Antimicrobial activity against Pseudomonas aeruginosa 1765-00
Pseudomonas aeruginosa [33] = assay: Antimicrobial activity against Pseudomonas aeruginosa 1513-08
Pseudomonas aeruginosa [34] = assay: Antimicrobial activity against Pseudomonas aeruginosa 1615-09
Pseudomonas aeruginosa [35] = assay: Antimicrobial activity against Pseudomonas aeruginosa 1612-09
Pseudomonas aeruginosa [36] = assay: Antimicrobial activity against Pseudomonas aeruginosa 1509-08
Pseudomonas aeruginosa [37] = assay: Antimicrobial activity against Pseudomonas aeruginosa 1566-05
Pseudomonas aeruginosa [38] = assay: Antimicrobial activity against Pseudomonas aeruginosa PA-4993
Pseudomonas aeruginosa [39] = assay: Antimicrobial activity against Pseudomonas aeruginosa 1768-00
Pseudomonas aeruginosa [40] = assay: Antimicrobial activity against Pseudomonas aeruginosa 1510-08
Pseudomonas aeruginosa [41] = assay: Antimicrobial activity against Pseudomonas aeruginosa 1521-08
Pseudomonas aeruginosa [42] = assay: Antimicrobial activity against Pseudomonas aeruginosa 1614-09
Pseudomonas aeruginosa [43] = assay: Antimicrobial activity against Pseudomonas aeruginosa 1752-00
Pseudomonas aeruginosa [44] = assay: Antimicrobial activity against Pseudomonas aeruginosa PA-75
Pseudomonas aeruginosa [45] = assay: Antimicrobial activity against Pseudomonas aeruginosa 1526-08
Pseudomonas aeruginosa [46] = assay: Antimicrobial activity against Pseudomonas aeruginosa 1561-05
Pseudomonas aeruginosa [47] = assay: Antimicrobial activity against Pseudomonas aeruginosa 1952-00
Pseudomonas aeruginosa [48] = assay: Antimicrobial activity against Pseudomonas aeruginosa 1951-00
Pseudomonas aeruginosa [49] = assay: Antimicrobial activity against Pseudomonas aeruginosa 1766-00
Pseudomonas aeruginosa [50] = assay: Antimicrobial activity against Pseudomonas aeruginosa 1955-00
Pseudomonas aeruginosa [51] = assay: Antimicrobial activity against Pseudomonas aeruginosa 1764-00

CC(C)(O/N=C(\C(=O)N[C@H]1CN(C(=O)NS(=O)(=O)n2nc(-c3cc(=O)c(O)c[nH]3)n(C[C@@H](O)CO)c2=O)C1=O)c1csc(N)n1)C(=O)O
MIC90 (Pseudomonas aeruginosa [1]): 1 µg/mL (≈ 1.4 µM)
MIC90 (Pseudomonas aeruginosa [2]): 0.25 µg/mL (≈ 0.35 µM)
MIC90 (Pseudomonas aeruginosa [3]): 0.5 µg/mL (≈ 0.7 µM)
MIC90 (Pseudomonas aeruginosa [4]): 0.125 µg/mL (≈ 0.175 µM)
MIC90 (Pseudomonas aeruginosa [5]): 0.5 µg/mL (≈ 0.7 µM)
MIC90 (Pseudomonas aeruginosa [6]): 0.25 µg/mL (≈ 0.35 µM)
MIC90 (Pseudomonas aeruginosa [7]): 0.125 µg/mL (≈ 0.175 µM)
MIC90 (Pseudomonas aeruginosa [8]): 0.06 µg/mL (≈ 0.084 µM)
MIC90 (Pseudomonas aeruginosa [9]): 0.25 µg/mL (≈ 0.35 µM)
MIC90 (Pseudomonas aeruginosa [10]): 0.25 µg/mL (≈ 0.35 µM)
MIC90 (Pseudomonas aeruginosa [11]): 0.125 µg/mL (≈ 0.175 µM)
MIC90 (Pseudomonas aeruginosa [12]): 0.25 µg/mL (≈ 0.35 µM)
MIC90 (Pseudomonas aeruginosa [13]): 0.06 µg/mL (≈ 0.084 µM)
MIC90 (Pseudomonas aeruginosa [14]): 0.125 µg/mL (≈ 0.175 µM)
MIC90 (Pseudomonas aeruginosa [15]): 0.06 µg/mL (≈ 0.084 µM)
MIC90 (Pseudomonas aeruginosa [16]): 0.25 µg/mL (≈ 0.35 µM)
MIC90 (Pseudomonas aeruginosa [17]): 0.125 µg/mL (≈ 0.175 µM)
MIC90 (Pseudomonas aeruginosa [18]): 0.125 µg/mL (≈ 0.175 µM)
MIC90 (Pseudomonas aeruginosa [19]): 0.25 µg/mL (≈ 0.35 µM)
MIC90 (Pseudomonas aeruginosa [20]): 0.25 µg/mL (≈ 0.35 µM)
MIC90 (Pseudomonas aeruginosa [21]): 0.125 µg/mL (≈ 0.175 µM)
MIC90 (Pseudomonas aeruginosa [22]): 8 µg/mL (≈ 11.2 µM)
MIC90 (Pseudomonas aeruginosa [23]): 0.25 µg/mL (≈ 0.35 µM)
MIC90 (Pseudomonas aeruginosa [24]): 0.25 µg/mL (≈ 0.35 µM)
MIC90 (Pseudomonas aeruginosa [25]): 0.06 µg/mL (≈ 0.084 µM)
MIC90 (Pseudomonas aeruginosa [26]): 0.25 µg/mL (≈ 0.35 µM)
MIC90 (Pseudomonas aeruginosa [27]): 0.125 µg/mL (≈ 0.175 µM)
MIC90 (Pseudomonas aeruginosa [28]): 0.5 µg/mL (≈ 0.7 µM)
MIC90 (Pseudomonas aeruginosa [29]): 0.25 µg/mL (≈ 0.35 µM)
MIC90 (Pseudomonas aeruginosa [30]): 0.125 µg/mL (≈ 0.175 µM)
MIC90 (Pseudomonas aeruginosa [31]): 0.125 µg/mL (≈ 0.175 µM)
MIC90 (Pseudomonas aeruginosa [32]): 0.5 µg/mL (≈ 0.7 µM)
MIC90 (Pseudomonas aeruginosa [33]): 0.5 µg/mL (≈ 0.7 µM)
MIC90 (Pseudomonas aeruginosa [34]): 0.25 µg/mL (≈ 0.35 µM)
MIC90 (Pseudomonas aeruginosa [35]): 0.5 µg/mL (≈ 0.7 µM)
MIC90 (Pseudomonas aeruginosa [36]): 2 µg/mL (≈ 2.8 µM)
MIC90 (Pseudomonas aeruginosa [37]): 0.125 µg/mL (≈ 0.175 µM)
MIC90 (Pseudomonas aeruginosa [38]): 0.125 µg/mL (≈ 0.175 µM)
MIC90 (Pseudomonas aeruginosa [39]): 0.06 µg/mL (≈ 0.084 µM)
MIC90 (Pseudomonas aeruginosa [40]): 8 µg/mL (≈ 11.2 µM)
MIC90 (Pseudomonas aeruginosa [41]): 0.5 µg/mL (≈ 0.7 µM)
MIC90 (Pseudomonas aeruginosa [42]): 0.25 µg/mL (≈ 0.35 µM)
MIC90 (Pseudomonas aeruginosa [43]): 0.5 µg/mL (≈ 0.7 µM)
MIC90 (Pseudomonas aeruginosa [44]): 0.25 µg/mL (≈ 0.35 µM)
MIC90 (Pseudomonas aeruginosa [45]): 0.5 µg/mL (≈ 0.7 µM)
MIC90 (Pseudomonas aeruginosa [46]): 1 µg/mL (≈ 1.4 µM)
MIC90 (Pseudomonas aeruginosa [47]): 0.125 µg/mL (≈ 0.175 µM)
MIC90 (Pseudomonas aeruginosa [48]): 0.25 µg/mL (≈ 0.35 µM)
MIC90 (Pseudomonas aeruginosa [49]): 16 µg/mL (≈ 22.4 µM)
MIC90 (Pseudomonas aeruginosa [50]): 0.125 µg/mL (≈ 0.175 µM)
MIC90 (Pseudomonas aeruginosa [51]): 0.125 µg/mL (≈ 0.175 µM)

C[C@H]1[C@H](NC(=O)/C(=N\OC(C)(C)C(=O)O)c2csc(N)n2)C(=O)N1C(=O)NS(=O)(=O)n1nc(-c2cc(=O)c(O)c[nH]2)n(C[C@@H](O)CO)c1=O
MIC90 (Pseudomonas aeruginosa [1]): 0.5 µg/mL (≈ 0.686 µM)
MIC90 (Pseudomonas aeruginosa [2]): 0.125 µg/mL (≈ 0.172 µM)
MIC90 (Pseudomonas aeruginosa [3]): 0.25 µg/mL (≈ 0.343 µM)
MIC90 (Pseudomonas aeruginosa [4]): 0.06 µg/mL (≈ 0.0823 µM)
MIC90 (Pseudomonas aeruginosa [5]): 0.25 µg/mL (≈ 0.343 µM)
MIC90 (Pseudomonas aeruginosa [6]): 0.125 µg/mL (≈ 0.172 µM)
MIC90 (Pseudomonas aeruginosa [7]): 0.06 µg/mL (≈ 0.0823 µM)
MIC90 (Pseudomonas aeruginosa [8]): 0.03 µg/mL (≈ 0.0412 µM)
MIC90 (Pseudomonas aeruginosa [9]): 0.125 µg/mL (≈ 0.172 µM)
MIC90 (Pseudomonas aeruginosa [10]): 0.125 µg/mL (≈ 0.172 µM)
MIC90 (Pseudomonas aeruginosa [11]): 0.06 µg/mL (≈ 0.0823 µM)
MIC90 (Pseudomonas aeruginosa [12]): 0.25 µg/mL (≈ 0.343 µM)
MIC90 (Pseudomonas aeruginosa [13]): 0.03 µg/mL (≈ 0.0412 µM)
MIC90 (Pseudomonas aeruginosa [14]): 0.25 µg/mL (≈ 0.343 µM)
MIC90 (Pseudomonas aeruginosa [15]): 0.015 µg/mL (≈ 0.0206 µM)
MIC90 (Pseudomonas aeruginosa [16]): 0.125 µg/mL (≈ 0.172 µM)
MIC90 (Pseudomonas aeruginosa [17]): 0.06 µg/mL (≈ 0.0823 µM)
MIC90 (Pseudomonas aeruginosa [18]): 0.25 µg/mL (≈ 0.343 µM)
MIC90 (Pseudomonas aeruginosa [19]): 0.25 µg/mL (≈ 0.343 µM)
MIC90 (Pseudomonas aeruginosa [20]): 0.125 µg/mL (≈ 0.172 µM)
MIC90 (Pseudomonas aeruginosa [21]): 0.03 µg/mL (≈ 0.0412 µM)
MIC90 (Pseudomonas aeruginosa [22]): 4 µg/mL (≈ 5.49 µM)
MIC90 (Pseudomonas aeruginosa [23]): 0.25 µg/mL (≈ 0.343 µM)
MIC90 (Pseudomonas aeruginosa [24]): 0.125 µg/mL (≈ 0.172 µM)
MIC90 (Pseudomonas aeruginosa [25]): 0.015 µg/mL (≈ 0.0206 µM)
MIC90 (Pseudomonas aeruginosa [26]): 0.125 µg/mL (≈ 0.172 µM)
MIC90 (Pseudomonas aeruginosa [27]): 0.06 µg/mL (≈ 0.0823 µM)
MIC90 (Pseudomonas aeruginosa [28]): 0.25 µg/mL (≈ 0.343 µM)
MIC90 (Pseudomonas aeruginosa [29]): 0.125 µg/mL (≈ 0.172 µM)
MIC90 (Pseudomonas aeruginosa [30]): 0.03 µg/mL (≈ 0.0412 µM)
MIC90 (Pseudomonas aeruginosa [31]): 0.25 µg/mL (≈ 0.343 µM)
MIC90 (Pseudomonas aeruginosa [32]): 0.5 µg/mL (≈ 0.686 µM)
MIC90 (Pseudomonas aeruginosa [33]): 0.25 µg/mL (≈ 0.343 µM)
MIC90 (Pseudomonas aeruginosa [34]): 0.25 µg/mL (≈ 0.343 µM)
MIC90 (Pseudomonas aeruginosa [35]): 0.25 µg/mL (≈ 0.343 µM)
MIC90 (Pseudomonas aeruginosa [36]): 1 µg/mL (≈ 1.37 µM)
MIC90 (Pseudomonas aeruginosa [37]): 0.06 µg/mL (≈ 0.0823 µM)
MIC90 (Pseudomonas aeruginosa [38]): 0.03 µg/mL (≈ 0.0412 µM)
MIC90 (Pseudomonas aeruginosa [39]): 0.06 µg/mL (≈ 0.0823 µM)
MIC90 (Pseudomonas aeruginosa [40]): 1 µg/mL (≈ 1.37 µM)
MIC90 (Pseudomonas aeruginosa [41]): 0.5 µg/mL (≈ 0.686 µM)
MIC90 (Pseudomonas aeruginosa [42]): 0.125 µg/mL (≈ 0.172 µM)
MIC90 (Pseudomonas aeruginosa [43]): 0.125 µg/mL (≈ 0.172 µM)
MIC90 (Pseudomonas aeruginosa [44]): 0.25 µg/mL (≈ 0.343 µM)
MIC90 (Pseudomonas aeruginosa [45]): 0.125 µg/mL (≈ 0.172 µM)
MIC90 (Pseudomonas aeruginosa [46]): 0.5 µg/mL (≈ 0.686 µM)
MIC90 (Pseudomonas aeruginosa [47]): 0.125 µg/mL (≈ 0.172 µM)
MIC90 (Pseudomonas aeruginosa [48]): 0.125 µg/mL (≈ 0.172 µM)
MIC90 (Pseudomonas aeruginosa [49]): 2 µg/mL (≈ 2.74 µM)
MIC90 (Pseudomonas aeruginosa [50]): 0.06 µg/mL (≈ 0.0823 µM)
MIC90 (Pseudomonas aeruginosa [51]): 0.06 µg/mL (≈ 0.0823 µM)
